The values that follow come from ChEMBL document CHEMBL5725873, “Heteroaryl compounds and their use as therapeutic drugs” (2018).

For orientation: IC50 means the concentration that inhibits the measured activity by half. A lower IC50 goes with higher potency.

For the assay, the target named is T1, Tyrosine-protein kinase Mer (Homo sapiens, UniProt Q12866).
T1 sequence (Q12866 whole entry): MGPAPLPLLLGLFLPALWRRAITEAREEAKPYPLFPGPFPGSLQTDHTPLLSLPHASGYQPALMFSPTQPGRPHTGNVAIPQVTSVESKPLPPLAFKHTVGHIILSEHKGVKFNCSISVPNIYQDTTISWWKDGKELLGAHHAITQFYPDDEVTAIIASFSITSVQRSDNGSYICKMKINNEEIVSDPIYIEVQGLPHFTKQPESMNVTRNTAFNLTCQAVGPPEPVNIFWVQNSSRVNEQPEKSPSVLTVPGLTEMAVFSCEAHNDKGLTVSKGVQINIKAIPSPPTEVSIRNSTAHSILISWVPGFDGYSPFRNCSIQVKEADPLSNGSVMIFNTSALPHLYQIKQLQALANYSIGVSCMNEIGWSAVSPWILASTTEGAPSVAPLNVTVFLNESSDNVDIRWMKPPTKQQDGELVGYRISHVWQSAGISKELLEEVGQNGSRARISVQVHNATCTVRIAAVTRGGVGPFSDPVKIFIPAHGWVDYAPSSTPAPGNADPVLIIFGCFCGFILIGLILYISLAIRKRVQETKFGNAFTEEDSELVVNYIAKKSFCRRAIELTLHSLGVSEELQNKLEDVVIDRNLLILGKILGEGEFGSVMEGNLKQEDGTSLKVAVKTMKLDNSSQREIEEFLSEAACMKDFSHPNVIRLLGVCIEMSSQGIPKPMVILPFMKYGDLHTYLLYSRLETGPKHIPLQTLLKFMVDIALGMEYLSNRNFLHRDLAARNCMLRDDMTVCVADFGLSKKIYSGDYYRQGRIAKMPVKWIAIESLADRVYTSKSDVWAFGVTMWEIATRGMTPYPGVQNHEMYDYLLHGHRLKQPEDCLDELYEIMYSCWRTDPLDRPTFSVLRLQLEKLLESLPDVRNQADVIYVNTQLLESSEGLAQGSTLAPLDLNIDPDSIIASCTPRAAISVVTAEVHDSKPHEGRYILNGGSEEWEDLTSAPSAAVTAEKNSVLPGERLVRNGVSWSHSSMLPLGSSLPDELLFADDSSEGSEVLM
Description: TBD: TBD.

Take `C[C@@H](CNC(=O)c1cc(-c2cnn(C)c2)cnc1N)OCc1ccc(Cl)c(Cl)c1`: the IC50 is > 1000 nM. Then `CN1CCN(Cc2ccc(-c3ccc(CO[C@H]4CCC[C@@H]4NC(=O)c4cc(-c5ccc(Cl)c(F)c5)cnc4N)cc3)cc2)CC1`, with < 10 nM.
